Measured values as given in patent publication US6737383B1, “Herbicidal oxadiazolidines” (priority 1999, dated 2004).

What was measured:
morningglory = assay: Test B pre/postemergence morningglory; type: in vivo, Ipomoea hederacea; conditions: for Morningglory plant response rating: scale of 0 to 10 where 0 is no effect and 10 is complete control
Summary of the method: (§1)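 Response is a visual 0-to-10 score relative to untreated plants, where 0 means no effect and 10 means complete control, taken twelve to sixteen days after application. Treatments went onto soil at planting and onto foliage of 1- to 4-leaf plants, using a surfactant-containing non-phytotoxic solvent.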

giant foxtail = assay: Test B pre/postemergence giant foxtail; type: in vivo, Setaria faberii; conditions: for Giant foxtail plant response rating: scale of 0 to 10 where 0 is no effect and 10 is complete control
Summary of the method: as §1

duck salad = assay: Test B flood test duck salad; type: in vivo, Heteranthera limosa
Summary of the method: (§2)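 Plants were grown to the 2-leaf stage before treatment with test chemical, then held in a greenhouse for twelve to sixteen days. Injury was visually rated against untreated controls on a 0–10 scale, where 0 is no effect and 10 is complete control.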

bamyardgrass = assay: Test B flood test barnyardgrass; type: in vivo, Echinochloa crus-galli
Summary of the method: as §2

blackgrass = assay: Test B pre/postemergence blackgrass; type: in vivo, Alopecurus myosuroides; conditions: for Blackgrass plant response rating: scale of 0 to 10 where 0 is no effect and 10 is complete control
Summary of the method: as §1

velvetleaf = assay: Test B pre/postemergence velvetleaf; type: in vivo, Abutilon theophrasti; conditions: for Velvetleaf plant response rating: scale of 0 to 10 where 0 is no effect and 10 is complete control
Summary of the method: as §1

purple nutsedge = assay: Test B pre/postemergence purple nutsedge; type: in vivo, Cyperus rotundus; conditions: for Nutsedge plant response rating: scale of 0 to 10 where 0 is no effect and 10 is complete control
Summary of the method: as §1

corn = assay: Test B pre/postemergence corn; type: in vivo, Zea mays; conditions: for Corn plant response rating: scale of 0 to 10 where 0 is no effect and 10 is complete control
Summary of the method: as §1

surinam grass = assay: Test B pre/postemergence surinam grass; type: in vivo, Brachiaria decumbens; conditions: for B. signalgrass plant response rating: scale of 0 to 10 where 0 is no effect and 10 is complete control
Summary of the method: as §1

pigweed = assay: Test B pre/postemergence pigweed; type: in vivo, Amaranthus retroflexus; conditions: for Redroot pigweed plant response rating: scale of 0 to 10 where 0 is no effect and 10 is complete control
Summary of the method: as §1

sugar beet = assay: Test B pre/postemergence sugar beet; type: in vivo, Beta vulgaris; conditions: for Sugarbeets plant response rating: scale of 0 to 10 where 0 is no effect and 10 is complete control
Summary of the method: as §1

rape = assay: Test B pre/postemergence rape; type: in vivo, Brassica napus; conditions: for Rape plant response rating: scale of 0 to 10 where 0 is no effect and 10 is complete control
Summary of the method: as §1

cocklebur = assay: Test B pre/postemergence cocklebur; type: in vivo, Xanthium strumarium; conditions: for Cocklebur plant response rating: scale of 0 to 10 where 0 is no effect and 10 is complete control
Summary of the method: as §1

rice = assay: Test B flood test rice; type: in vivo, Oryza sativa
Summary of the method: as §2

bedstraw = assay: Test B pre/postemergence bedstraw; type: in vivo, Galium aparine; conditions: for Bedstraw plant response rating: scale of 0 to 10 where 0 is no effect and 10 is complete control
Summary of the method: as §1

[1] = Postemergence, Rate 125 g/ha, scale 0 to 10, 0 is no effect, 10 is complete control
[2] = Postemergence, Rate 250 g/ha, scale 0 to 10, 0 is no effect, 10 is complete control
[3] = Preemergence, Rate 62 g/ha, scale 0 to 10 (0 no effect, 10 complete control)
[4] = Rate 500 g/ha, Postemergence, scale 0 to 10, 0 no effect, 10 complete control
[5] = Rate 62 g/ha, flood test species, Pre-emergence, visual evaluation after twelve to sixteen days
[6] = Rate 125 g/ha, under heading Pre-emergence, flood test species, visual evaluation after twelve to sixteen days
[7] = Rate 250 g/ha, Pre-emergence, flood-test species, scale 0 to 10, 0 is no effect, 10 is complete control
[8] = Rate 500 g/ha, Pre-emergence, flood test species, scale 0 to 10 (0 no effect, 10 complete control)

Cc1nnsc1Cn1c(=O)on(C(=O)N(c2ccccc2)C(C)C)c1=O [Compound 378]
3: Plant response rating, Giant foxtail (giant foxtail; [2]) | Plant response rating, Velvetleaf (velvetleaf; [4]) | Plant response rating, Rape (rape; [4])
0: Plant response rating, Morningglory (morningglory; [3]) | Morningglory plant response rating (0 to 10 scale) (morningglory; Preemergence, Rate 125 g/ha) | Morningglory plant response rating (morningglory; Preemergence, Rate 250 g/ha) | Morningglory plant response rating (morningglory; Preemergence, Rate 500 g/ha) | Plant response rating, Giant foxtail (giant foxtail; [1]) | Giant foxtail plant response rating (giant foxtail; Rate 62 g/ha, Postemergence) | Plant response rating, Ducksalad (0 to 10 scale, 0 is no effect, 10 is complete control) (duck salad; [5]) | Ducksalad plant response rating (0 to 10 scale, 0 is no effect, 10 is complete control) (duck salad; [6]) | Ducksalad plant response rating (duck salad; [7]) | Ducksalad plant response rating (duck salad; [8]) | Plant response rating, Barnyardgrass (0 to 10 scale, 0 is no effect, 10 is complete control) (bamyardgrass; [5]) | Barnyardgrass plant response rating (0 to 10 scale, 0 is no effect, 10 is complete control) (bamyardgrass; [6]) | Barnyardgrass plant response rating (bamyardgrass; [7]) | Barnyardgrass plant response rating (bamyardgrass; [8]) | Plant response rating, Blackgrass (blackgrass; [1]) | Plant response rating, Blackgrass (blackgrass; [2]) | Plant response rating, Blackgrass (blackgrass; [3]) | Blackgrass plant response rating (0 to 10 scale) (blackgrass; Preemergence, Rate 125 g/ha) | Blackgrass plant response rating (blackgrass; Preemergence, Rate 250 g/ha) | Blackgrass plant response rating (blackgrass; Preemergence, Rate 500 g/ha) | Blackgrass plant response rating (blackgrass; Rate 62 g/ha, Postemergence) | Plant response rating, Velvetleaf (velvetleaf; [1]) | Plant response rating, Velvetleaf (velvetleaf; [2]) | Plant response rating, Velvetleaf (velvetleaf; [3]) | Velvetleaf plant response rating (0 to 10 scale) (velvetleaf; Preemergence, Rate 125 g/ha) | Velvetleaf plant response rating (velvetleaf; Preemergence, Rate 250 g/ha) | Velvetleaf plant response rating (velvetleaf; Preemergence, Rate 500 g/ha) | Velvetleaf plant response rating (velvetleaf; Rate 62 g/ha, Postemergence) | Plant response rating, Nutsedge (purple nutsedge; [1]) | Plant response rating, Nutsedge (purple nutsedge; [2]) | Plant response rating, Nutsedge (purple nutsedge; [3]) | Nutsedge plant response rating (0 to 10 scale) (purple nutsedge; Preemergence, Rate 125 g/ha) | Nutsedge plant response rating (purple nutsedge; Preemergence, Rate 250 g/ha) | Nutsedge plant response rating (purple nutsedge; Preemergence, Rate 500 g/ha) | Nutsedge plant response rating (purple nutsedge; Rate 62 g/ha, Postemergence) | Plant response rating, Nutsedge (purple nutsedge; [4]) | Plant response rating, Corn (corn; [1]) | Plant response rating, Corn (corn; [2]) | Plant response rating, Corn (corn; [3]) | Corn plant response rating (0 to 10 scale) (corn; Preemergence, Rate 125 g/ha) | Corn plant response rating (corn; Preemergence, Rate 250 g/ha) | Corn plant response rating (corn; Preemergence, Rate 500 g/ha) | Corn plant response rating (corn; Rate 62 g/ha, Postemergence) | Plant response rating, Corn (corn; [4]) | Plant response rating, B. signalgrass (surinam grass; [1]) | Plant response rating, B. signalgrass (surinam grass; [2]) | Plant response rating, B. signalgrass (surinam grass; [3]) | B. signalgrass plant response rating (0 to 10 scale, 0 is no effect, 10 is complete control) (surinam grass; Preemergence, Rate 125 g/ha) | B. signalgrass plant response rating (surinam grass; Preemergence, Rate 250 g/ha) | B. signalgrass plant response rating (surinam grass; Preemergence, Rate 500 g/ha) | B. signalgrass plant response rating (surinam grass; Rate 62 g/ha, Postemergence) | Plant response rating, Redroot pigweed (pigweed; [1]) | Plant response rating, Redroot pigweed (pigweed; [2]) | Plant response rating, Redroot pigweed (pigweed; [3]) | Redroot pigweed plant response rating (0 to 10 scale) (pigweed; Preemergence, Rate 125 g/ha) | Redroot pigweed plant response rating (pigweed; Preemergence, Rate 250 g/ha) | Redroot pigweed plant response rating (pigweed; Preemergence, Rate 500 g/ha) | Redroot pigweed plant response rating (pigweed; Rate 62 g/ha, Postemergence) | Plant response rating, Sugarbeets (sugar beet; [1]) | Plant response rating, Sugarbeets (sugar beet; [2]) | Plant response rating, Sugarbeets (sugar beet; [3]) | Sugarbeets plant response rating (0 to 10 scale) (sugar beet; Preemergence, Rate 125 g/ha) | Sugarbeets plant response rating (sugar beet; Preemergence, Rate 250 g/ha) | Sugarbeets plant response rating (sugar beet; Preemergence, Rate 500 g/ha) | Sugarbeets plant response rating (sugar beet; Rate 62 g/ha, Postemergence) | Plant response rating, Sugarbeets (sugar beet; [4]) | Plant response rating, Rape (rape; [1]) | Plant response rating, Rape (rape; [2]) | Plant response rating, Rape (rape; [3]) | Rape plant response rating (0 to 10 scale) (rape; Preemergence, Rate 125 g/ha) | Rape plant response rating (rape; Preemergence, Rate 250 g/ha) | Rape plant response rating (rape; Preemergence, Rate 500 g/ha) | Rape plant response rating (rape; Rate 62 g/ha, Postemergence) | Plant response rating, Cocklebur (cocklebur; [1]) | Plant response rating, Cocklebur (cocklebur; [2]) | Plant response rating, Cocklebur (cocklebur; [3]) | Cocklebur plant response rating (0 to 10 scale) (cocklebur; Preemergence, Rate 125 g/ha) | Cocklebur plant response rating (cocklebur; Preemergence, Rate 250 g/ha) | Cocklebur plant response rating (cocklebur; Preemergence, Rate 500 g/ha) | Cocklebur plant response rating (cocklebur; Rate 62 g/ha, Postemergence) | Plant response rating, Rice (0 to 10 scale, 0 is no effect, 10 is complete control) (rice; [5]) | Rice plant response rating (0 to 10 scale, 0 is no effect, 10 is complete control) (rice; [6]) | Rice plant response rating (rice; [7]) | Rice plant response rating (rice; [8]) | Plant response rating, Bedstraw (bedstraw; [2]) | Plant response rating, Bedstraw (bedstraw; [3]) | Bedstraw plant response rating (0 to 10 scale) (bedstraw; Preemergence, Rate 125 g/ha) | Bedstraw plant response rating (bedstraw; Preemergence, Rate 250 g/ha) | Bedstraw plant response rating (bedstraw; Preemergence, Rate 500 g/ha)
8: Plant response rating, Giant foxtail (giant foxtail; [4])
5: Morningglory plant response rating (morningglory; Rate 62 g/ha, Postemergence)
10: Plant response rating, Morningglory (morningglory; [2]) | Plant response rating, Morningglory (morningglory; [4]) | Giant foxtail plant response rating (giant foxtail; Preemergence, Rate 250 g/ha) | Giant foxtail plant response rating (giant foxtail; Preemergence, Rate 500 g/ha)
4: Plant response rating, Giant foxtail (giant foxtail; [3]) | Giant foxtail plant response rating (0 to 10 scale) (giant foxtail; Preemergence, Rate 125 g/ha)
2: Plant response rating, B. signalgrass (surinam grass; [4]) | Plant response rating, Redroot pigweed (pigweed; [4])
1: Plant response rating, Cocklebur (cocklebur; [4])
7: Plant response rating, Morningglory (morningglory; [1])
